Twelve compounds from PubChem BioAssay (NCI) can be followed below.

What all share (assay): NCI-60 cell line screen, 48 h
Test [1] relates to U251 CNS.
Test [2] relates to RXF 393 renal.
In test [3] the test system is NCI-H522 lung.
Test [4] deals with SF-268 CNS.
The test system of test [5] is SNB-75 CNS.
Test [6] concerns COLO 205 colon.
The subject of test [7] is SN12C renal.
In test [8] the test system is HOP-62 NSCLC.
Test [9] concerns SR leukemia.
Test [10] relates to LOX IMVI melanoma.

Values joined by “and” are separate entries in the source; they are usually repeats but may differ in a detail not shown here. Equal entries are not always repeated.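 Values below derive from 48-hour exposures of cells grown in 96-well plates, with endpoints linearly interpolated between the two concentrations bracketing the appropriate inhibition level. Here, GI50 denotes the concentration required for 50% inhibition of growth. At the TGI there is no net growth.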

As for `CCC[CH2][Sn]([CH2]CCC)([CH2]CCC)[O]C(=O)CC`, the GI50 in [1] is 0.168 µM; in [2], 0.14 µM; in [3], 0.149 µM; in test [4] it was 0.146 µM; in test [5] it was 0.144 µM; in test [6], 0.178 µM. The results for the GI50 in [7] and in [8] were 0.158 µM and 0.188 µM, respectively. The TGI stood at 0.327 µM in [1]; 0.285 µM in test [2]; 0.299 µM in test [3]; 0.345 µM in [4]; 0.349 µM in [5]; 0.372 µM in test [6]. Moreover, the TGI in test [7] was 0.365 µM; in test [8] it was 0.414 µM.

Turning to `OCCN1CN(CCO)CN(c2nc(N3CN(CCO)CN(CCO)C3)nc(N3CN(CCO)CN(CCO)C3)n2)C1`, the TGI came to 0.63 ng/mL in [9], 2.91 ng/mL in test [3], 2.04 ng/mL in test [4] and 7.22 ng/mL in [7]. Further, the GI50 is 1.04 ng/mL in [3] and 6.3 ng/mL in [7].

As for `COCCOc1cc(F)c2c(Nc3ccc(NC(=O)Cn4cc(C(C)C)nn4)cc3)ncnc2c1`, the GI50 in [1] was 37.4 µM; in test [2], 10.2 µM; in test [3], 35.5 µM; in test [4], 37.5 µM; in test [5] it was 28.2 µM; in test [6], over 100 µM. For the same compound, the GI50 is over 100 µM in test [10], 71.6 µM in test [7] and 22.2 µM in test [8]. In addition, the TGI in test [1], in test [2], in test [3], in test [4], in test [5] and in [6] was over 100 µM in each case. Also, the TGI in test [10], in test [7] and in [8] was over 100 µM throughout.

For `CCCCN(CCCC)CC(C(=O)Nc1ccc([N+](=O)[O-])cc1[N+](=O)[O-])/C(C)=N\NC(=S)NN` (stereo not given), the TGI in test [1] is over 100 µM; in [2], over 100 µM; in [3] it was 65.4 µM; in [4], over 100 µM; in test [5], over 100 µM; in test [6] it was over 100 µM. Moreover, the TGI in test [10] and in test [8] was over 100 µM throughout.

For `CC1=CC(/C=C(\C)CCCc2ccoc2)C2(OC(=O)C(C)=C2O)[C@H]2C1CC[C@@H]2C` (stereo not given in full), the TGI was 67.1 µM in [1]; 60.5 µM in test [2]; 31.2 µM in test [3]; over 100 µM in [5]; 47 µM in test [6]; 59.3 µM in test [10]. In addition, the TGI in test [7] was determined as 60.8 µM.

Consider `CC1OC2CC(=O)OC2C2=C1C(=O)c1c(O)cccc1C2=O` (stereo not given), for which the GI50 in test [1] is 0.167 µM; in [2] it was 0.0195 µM; in test [3] it was under 0.0168 µM; in [4] it was 0.163 µM; in test [5], 0.13 µM; in test [6], 0.0177 µM. The figures for the GI50 in test [10], in test [7] and in test [8] were 0.0342 µM, 0.116 µM and 0.182 µM, respectively. Further, the TGI in [1] was determined as 0.492 µM; in test [2], 0.0499 µM; in test [3], 0.0402 µM; in test [4] it was 0.436 µM; in test [5], 0.317 µM; in [6] it was 0.0405 µM. For the same compound, the results for the TGI in test [10], in [7] and in test [8] were 0.129 µM, 0.259 µM and 0.366 µM, respectively.

`CC(C)(C)OC(=O)NCC(=O)OCc1ccccc1`: the TGI in [1], in test [4], in [5], in test [6], in test [10] and in test [7] was over 100 µM throughout. The TGI in [8] was over 100 µM.

Consider `C/C1=C\CC[C@@]2(C)O[C@@H]2[C@H]2OC(=O)[C@@H](CN(C)C)[C@@H]2CC1`, for which the GI50 was 14.9 µM in test [1]; 16.1 µM in [2]; 2.65 µM in test [3]; 38.7 µM in test [4]; 33.8 µM in [6]; 10.2 µM in test [10]. The GI50 in [7] was 12.8 µM; in test [8], 20.9 µM. For the same compound, the TGI in test [1] was 34.4 µM; in [2], 50.5 µM; in [3] it was 7.06 µM; in test [4] it was over 100 µM; in [6], 98.4 µM; in test [10], 29.9 µM. Moreover, the values for the TGI in test [7] and in test [8] were 32.4 µM and 40.4 µM, respectively.

As for `COC(=O)c1cc2c(cc1O)[C@@H](NC(C)=O)CCc1cc(OC)c(OC)c(OC)c1-2`, the GI50 was under 0.01 µM in test [9]; 0.0402 µM in test [1]; 0.447 µM in test [4]; 0.0236 µM in test [6]; 0.0408 µM in test [7]. For the same compound, the TGI in [9] is over 100 µM; in test [1], 1.17 µM; in test [3], 0.19 µM; in test [4], over 100 µM; in [6], 1.56 µM and 1.18 µM; in test [10], over 100 µM. This compound also returned a TGI in test [7] of over 100 µM.

As for `CC(=O)Nc1ccc(C(=O)NN2C(=O)C(Cl)C2c2ccccc2)cc1` (stereo not given), the TGI in test [1], in [2], in test [3], in test [4], in test [5] and in [6] was over 100 µM throughout. In addition, the TGI in test [10], in test [7] and in [8] was over 100 µM in each case.

Take `O=S(O)CCCCSSCC(O)C(O)CSSCCCCS(=O)O` (stereo not given): the TGI in [1] is over 100 µM; in [2] it was 38 µM and 89.8 µM; in test [3], 20 µM and 30.4 µM; in test [4], 32.1 µM and 57.9 µM; in test [5], > 100 µM and 88.7 µM; in test [6], 29 µM and 39.5 µM. The TGI was 38.1 µM and 72.7 µM in [10]; over 100 µM in [7]; over 100 µM in [8]. The GI50 in test [3] was 6.48 µM and 13 µM.

In the case of `Cc1ccc(S(=O)(=O)NCC2CCCCC2=O)cc1` (stereo not given), the TGI in test [1] is over 100 µM; in [2], over 100 µM; in test [3], over 100 µM; in [4], over 100 µM; in test [5], 93.1 µM; in test [6], over 100 µM. For the same compound, the TGI in [10] and in [7] was over 100 µM in each case.
